pIC50: −log10 of the molar value. Where a name gives a salt, the structure may show the parent alone. Read-outs that look alike come from different tables or passages of the source.
Biological target: T1, HCV polymerase (Hepatitis C virus genotype 1b, UniProt P26663)
T1 construct: a region encoding NS5B (591 amino acids; J Virol 1991 Mar, 65(3), 1105-13) was amplified by PCR; 6 His (N); made in house; host or cells: Escherichia coli
Assay: biochemical

[1] = read-out: HCV polymerase inhibitory activity IC50

T1 sequence (P26663 2420-3010): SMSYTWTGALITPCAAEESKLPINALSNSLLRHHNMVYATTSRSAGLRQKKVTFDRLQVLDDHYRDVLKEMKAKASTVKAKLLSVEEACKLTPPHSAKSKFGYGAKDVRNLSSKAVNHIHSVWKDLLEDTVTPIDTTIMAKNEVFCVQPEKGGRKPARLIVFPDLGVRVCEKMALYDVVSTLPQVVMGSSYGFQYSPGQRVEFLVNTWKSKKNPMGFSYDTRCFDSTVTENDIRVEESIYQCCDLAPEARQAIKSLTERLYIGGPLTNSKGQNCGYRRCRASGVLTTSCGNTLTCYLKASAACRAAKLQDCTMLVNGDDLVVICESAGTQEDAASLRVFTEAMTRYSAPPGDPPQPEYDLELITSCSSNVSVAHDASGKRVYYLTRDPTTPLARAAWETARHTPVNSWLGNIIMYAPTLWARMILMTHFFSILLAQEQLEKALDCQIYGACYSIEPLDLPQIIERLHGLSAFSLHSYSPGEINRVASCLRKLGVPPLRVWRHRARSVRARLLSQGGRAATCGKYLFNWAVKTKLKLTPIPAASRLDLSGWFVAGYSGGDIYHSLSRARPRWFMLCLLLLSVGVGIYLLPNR

For Cc1nc(-c2ccc(Cl)cc2)c(COc2ccc(-c3nc4cc(C(=O)O)ccc4n3C3CCCCC3)cc2)s1 [Example 218, 2-{4-[{4-(4-chlorophenyl)-2-methyl-5-thiazolyl}methoxy]phenyl}-1-cyclohexylbenzimidazole-5-carboxylic acid], the pIC50 [1] was 7.48.
For O=C(O)c1ccc2c(c1)nc(-c1ccc(OC3CCCN(Cc4ccc(Cl)cc4)C3)cc1)n2C1CCCCC1 (stereo not drawn) [Example 219, 2-{4-[1-(4-chlorobenzyl)-3-piperidyloxy]phenyl}-1-cyclohexylbenzimidazole-5-carboxylic acid], the pIC50 [1] was 6.89.
Cc1nc(COc2cccc(Oc3ccc(-c4nc5cc(C(=O)O)ccc5n4C4CCCCC4)cc3)c2)cs1 [Example 220, 1-cyclohexyl-2-{4-[3-{(2-methyl-4-thiazolyl)methoxy}phenoxy]-phenyl}benzimidazole-5-carboxylic acid] was tested, and the pIC50 [1] was 7.14.
Cc1nc(C)c(COc2cccc(Oc3ccc(-c4nc5cc(C(=O)O)ccc5n4C4CCCCC4)cc3)c2)s1 [Example 221, 1-cyclohexyl-2-{4-[3-{(2,4-dimethyl-5-thiazolyl)methoxy}phenoxy]-phenyl}benzimidazole-5-carboxylic acid] showed a pIC50 [1] of 7.24.
Molecule O=C(O)c1ccc2c(c1)nc(-c1ccc(Oc3cccc(-c4cc(Cl)cc(Cl)c4)c3)cc1)n2C1CCCCC1 [Example 222, 1-cyclohexyl-2-{4-[3-(3,5-dichlorophenyl)phenoxy]phenyl}-benzimidazole-5-carboxylic acid] has a pIC50 [1] of 7.39.
Molecule O=C(O)c1ccc2c(c1)nc(-c1ccc(OC3CCN(Cc4ccc(Cl)cc4)CC3)cc1)n2C1CCCCC1 [Example 223, 2-{4-[1-(4-chlorobenzyl)-4-piperidyloxy]phenyl}-1-cyclohexylbenzimidazole-5-carboxylic acid] has a pIC50 [1] of 6.68.
NC(=O)c1ccc(COc2ccc(-c3nc4cc(C(=O)O)ccc4n3C3CCCCC3)cc2)c(-c2ccc(Cl)cc2)c1 [Example 225, 2-{4-[4-carbamoyl-2-(4-chlorophenyl)benzyloxy]phenyl}-1-cyclohexylbenzimidazole-5-carboxylic acid] showed a pIC50 [1] of 7.85.
Work on O=C(O)c1ccc2c(c1)nc(-c1ccc(Oc3cccc(OCc4ccnc(Cl)c4)c3)cc1)n2C1CCCCC1 [Example 227, 2-{4-[3-{(2-chloro-4-pyridyl)methoxy}phenoxy]phenyl}-1-cyclohexylbenzimidazole-5-carboxylic acid] yielded a pIC50 [1] of 7.35.
CN(C)C(=O)c1ccc(N2CCC[C@H]2COc2ccc(-c3nc4cc(C(=O)O)ccc4n3C3CCCCC3)cc2)cc1 [Example 228, 2-{4-[{(2S)-1-(4-dimethylcarbamoylphenyl)-2-pyrrolidinyl}-methoxy]phenyl}-1-cyclohexylbenzimidazole-5-carboxylic acid] gave a pIC50 [1] of 6.74.
For CCOC(=O)c1ccc(-c2ccc(Cl)cc2)c(COc2ccc(-c3nc4cc(C(=O)O)ccc4n3C3CCCCC3)cc2)c1 [Example 229, 2-{4-[2-(4-chlorophenyl)-5-ethoxycarbonylbenzyloxy]phenyl}-1-cyclohexylbenzimidazole-5-carboxylic acid], the pIC50 [1] was 7.66.
O=C(O)c1ccc2c(c1)nc(-c1ccc(Oc3cccc(C(F)(F)F)c3)cc1)n2C1CCCCC1 [Example 230, 1-cyclohexyl-2-[4-(3-trifluoromethylphenoxy)phenyl]-benzimidazole-5-carboxylic acid] gave a pIC50 [1] of 6.77.
Cc1nc(-c2ccc(C(=O)N(C)C)cc2)c(COc2ccc(-c3nc4cc(C(=O)O)ccc4n3C3CCCCC3)cc2)s1 [Example 231, 1-cyclohexyl-2-{4-[{4-(4-dimethylcarbamoylphenyl)-2-methyl-5-thiazolyl}methoxy]phenyl}benzimidazole-5-carboxylic acid] gave a pIC50 [1] of 7.14.
CN(C)C(=O)c1ccc(-c2ccc(Cl)cc2)c(COc2ccc(-c3nc4cc(C(=O)O)ccc4n3C3CCCCC3)cc2)c1 [Example 232, 2-{4-[2-(4-chlorophenyl)-5-dimethylcarbamoylbenzyloxy]phenyl}-1-cyclohexylbenzimidazole-5-carboxylic acid] was tested, and the pIC50 (HCV polymerase inhibitory activity IC50) was 7.82.
O=C(O)c1ccc2c(c1)nc(-c1ccc(OCc3cccnc3-c3ccc(Cl)cc3)cc1)n2C1CCCCC1 [Example 234, 2-{4-[{2-(4-chlorophenyl)-3-pyridyl}methoxy]phenyl}-1-cyclohexylbenzimidazole-5-carboxylic acid dihydrochloride] gave a pIC50 [1] of 7.66.
Molecule O=C(O)c1ccc2c(c1)nc(-c1ccc(OCc3ncccc3-c3ccc(Cl)cc3)cc1)n2C1CCCCC1 [Example 235, 2-{4-[{3-(4-chlorophenyl)-2-pyridyl}methoxy]phenyl}-1-cyclohexylbenzimidazole-5-carboxylic acid] has a pIC50 [1] of 7.44.
With CNc1nc(Oc2ccc(-c3nc4cc(C(=O)O)ccc4n3C3CCCCC3)cc2)nc(-c2cccc(Cl)c2)n1 [Example 236, 2-{4-[2-(3-chlorophenyl)-4-methylamino-1,3,5-triazin-6-yloxy]phenyl}-1-cyclohexylbenzimidazole-5-carboxylic acid trifluoroacetate] the pIC50 [1] was 7.12.
With O=C(O)c1ccc2c(c1)nc(-c1ccc(OCc3ccc(-c4nnn[nH]4)cc3-c3ccc(Cl)cc3)cc1)n2C1CCCCC1 [Example 237, 2-{4-[2-(4-chlorophenyl)-4-(5-tetrazolyl)benzyloxy]phenyl}-1-cyclohexylbenzimidazole-5-carboxylic acid] the pIC50 [1] was 7.82.
O=C(O)c1ccc2c(c1)nc(-c1ccc(Oc3cc(OCc4ccccc4)ncn3)cc1)n2C1CCCCC1 [Example 238, 2-[4-(4-benzyloxy-6-pyrimidinyloxy)phenyl]-1-cyclohexylbenzimidazole-5-carboxylic acid] was tested, and the pIC50 [1] was 6.72.
In the case of O=C(O)c1ccc2c(c1)nc(-c1ccc(Oc3cc(OCc4ccncc4)ncn3)cc1)n2C1CCCCC1 [Example 239, 1-cyclohexyl-2-{4-[4-(4-pyridylmethoxy)-6-pyrimidinyloxy]phenyl}-benzimidazole-5-carboxylic acid], the pIC50 [1] was 6.77.
Work on CNC(=O)c1ccc(-c2ccc(Cl)cc2)c(COc2ccc(-c3nc4cc(C(=O)O)ccc4n3C3CCCCC3)cc2)c1 [Example 248, 2-{4-[2-(4-chlorophenyl)-5-methylcarbamoylbenzyloxy]phenyl}-1-cyclohexylbenzimidazole-5-carboxylate hydrochloride] yielded a pIC50 [1] of 7.92.
For CC(C)(C)NS(=O)(=O)c1ccc(-c2ccc(Cl)cc2)c(COc2ccc(-c3nc4cc(C(=O)O)ccc4n3C3CCCCC3)cc2)c1 [Example 249, 2-{4-[3-(tert-butylsulfamoyl)-6-(4-chlorophenyl)benzyloxy]-phenyl}-1-cyclohexylbenzimidazole-5-carboxylic acid], the pIC50 [1] was 7.66.
Work on O=C(O)c1ccc2c(c1)nc(-c1ccc(COc3ccccc3-c3ccccc3)s1)n2C1CCCCC1 [Example 252, 2-[2-(2-biphenylyloxymethyl)-5-thienyl]-1-cyclohexylbenzimidazole-5-carboxylic acid] yielded a pIC50 [1] of 6.49.
Work on O=C(O)c1ccc2c(c1)nc(-c1ccc(COc3ccccc3-c3ccccc3)o1)n2C1CCCCC1 [Example 253, 2-[2-(2-biphenylyloxymethyl)-5-furyl]-1-cyclohexylbenzimidazole-5-carboxylic acid] yielded a pIC50 [1] of 6.19.
With O=C(O)c1ccc2c(c1)nc(-c1ccc(OCc3sc(CO)nc3-c3ccc(F)cc3)cc1)n2C1CCCCC1 [Example 254, 1-cyclohexyl-2-{4-[{4-(4-fluorophenyl)-2-hydroxymethyl-5-thiazolyl}methoxy]phenyl}benzimidazole-5-carboxylic acid] the pIC50 [1] was 7.42.

— US20040082635A1, “Fused cyclic compounds and medicinal use thereof” (priority 2001, published 2004)
